Reference: patent US20090124672A1 (priority 2007, published 2009)

Each compound was assayed against T1, hALDH2 (recombinant human mitochondria ALDH) (Homo sapiens, UniProt P05091) (assay: ALDH2 inhibition assay (NADH formation, formaldehyde substrate)). Settings: not given.
T1 sequence (P05091 18-517): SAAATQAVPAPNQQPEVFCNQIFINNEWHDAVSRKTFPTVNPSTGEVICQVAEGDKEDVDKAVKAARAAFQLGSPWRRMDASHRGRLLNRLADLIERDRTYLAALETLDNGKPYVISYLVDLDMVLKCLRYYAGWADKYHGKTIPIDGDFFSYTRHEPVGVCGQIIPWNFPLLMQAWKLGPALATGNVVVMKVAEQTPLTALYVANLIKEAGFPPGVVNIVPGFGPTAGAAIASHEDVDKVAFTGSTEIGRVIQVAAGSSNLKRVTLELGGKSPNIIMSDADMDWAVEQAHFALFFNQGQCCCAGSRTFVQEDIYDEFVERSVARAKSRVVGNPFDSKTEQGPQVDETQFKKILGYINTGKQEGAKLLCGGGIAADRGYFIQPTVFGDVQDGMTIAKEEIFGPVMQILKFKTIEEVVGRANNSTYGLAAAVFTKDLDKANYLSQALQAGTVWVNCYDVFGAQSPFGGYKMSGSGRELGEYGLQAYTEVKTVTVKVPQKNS
Type: biochemical
Method: ALDH2 inhibition assays were performed in sodium phosphate buffer (50 mM, pH 7.4) containing 1.2 mM NAD^+ (Sigma N7004), 1 nM hALDH2 (recombinant human mitochondria ALDH), various concentrations of test compounds (from 0.03 nM to 1000 nM), and 0.15 mM freshly prepared formaldehyde solution (Ladd Research 20295). Reactions were initiated by the addition of formaldehyde and rates were recorded by monitoring NADH formation in a temperature controlled (25° C.) FluoroMax-2 Fluorimeter with excitation and emission wavelengths set at 340 and 460 nm, respectively. […] Normally, IC50 values were determined by fitting concentration-inhibition data to sigmoidal dose-response curves with two-floating parameters: IC50 and Hill coefficient. When tight binding situation was suspected, apparent Ki values were estimated by fitting dose-response data to Morrison's equation [Methods in Enzymology 63, 437-467, 1979].

Compound	IC50 [nM]
COc1ccc(-c2nc(COc3ccc4c(=O)c(-c5ccc(O)cc5)coc4c3)no2)cc1C(F)(F)F	20
3-(4-hydroxyphenyl)-7-[(6-pyrazolyl(3-pyridyl))methoxy]chromen-4-one [PT-52]	10
7-{2-[4-(3-chlorophenyl)piperazinyl]ethoxy}-3-(4-hydroxyphenyl)chromen-4-one [PT-123]	11
7-{2-[4-(4-chlorophenyl)pyrazolyl]ethoxy}-3-(4-hydroxyphenyl)chromen-4-one [PT-51]	110
7-{3-[4-(4-chlorophenyl)pyrazolyl]propoxy}-3-(4-hydroxyphenyl)chromen-4-one [PT-106]	110
Cc1nc(-c2ccc(C(F)(F)F)cc2)sc1COc1ccc2c(=O)c(-c3ccc(O)cc3)coc2c1 [PT-4, 3-(4-hydroxyphenyl)-7-({4-methyl-2-[4-(trifluoromethyl)phenyl](1,3-thiazol-5-yl)}methoxy)chromen-4-one]	200
O=c1c(-c2ccc(O)cc2)coc2cc(OCc3coc(-c4cccc(C(F)(F)F)c4)n3)ccc12 [PT-12, 3-(4-hydroxyphenyl)-7-({2-[3-(trifluoromethyl)phenyl](1,3-oxazol-4-yl)}methoxy)chromen-4-one]	3
O=c1c(-c2ccc(O)cc2)coc2cc(OCc3coc(-c4cc(F)cc(C(F)(F)F)c4)n3)ccc12 [PT-13, 7-({2-[5-fluoro-3-(trifluoromethyl)phenyl](1,3-oxazol-4-yl)}methoxy)-3-(4-hydroxyphenyl)chromen-4-one]	20
O=c1c(-c2ccc(O)cc2)coc2cc(OCc3coc(-c4cc(F)cc(F)c4)n3)ccc12 [PT-14, 7-{[2-(3,5-difluorophenyl)(1,3-oxazol-4-yl)]methoxy}-3-(4-hydroxyphenyl)chromen-4-one]	60
O=c1c(-c2ccc(O)cc2)coc2cc(OCc3coc(-c4ccc(F)c(F)c4)n3)ccc12 [PT-15, 7-{[2-(3,4-difluorophenyl)(1,3-oxazol-4-yl)]methoxy}-3-(4-hydroxyphenyl)chromen-4-one]	120
O=c1c(-c2ccc(O)cc2)coc2cc(OCc3coc(-c4ccc(F)cc4)n3)ccc12 [PT-16, 7-{[2-(4-fluorophenyl)(1,3-oxazol-4-yl)]methoxy}-3-(4-hydroxyphenyl)chromen-4-one]	47
O=c1c(-c2ccc(O)cc2)coc2cc(OCc3coc(-c4ccc(Cl)cc4)n3)ccc12 [PT-17, 7-{[2-(4-chlorophenyl)(1,3-oxazol-4-yl)]methoxy}-3-(4-hydroxyphenyl)chromen-4-one]	573
O=c1c(-c2ccc(O)cc2)coc2cc(OCc3noc(-c4ccccc4)n3)ccc12 [PT-24, 3-(4-hydroxyphenyl)-7-[(5-phenyl(1,2,4-oxadiazol-3-yl))methoxy]chromen-4-one]	160
N#Cc1cccc(COc2ccc3c(=O)c(-c4ccc(O)cc4)coc3c2)c1 [PT-25, 3-{[3-(4-hydroxyphenyl)-4-oxochromen-7-yloxy]methyl}benzenecarbonitrile]	4
O=c1c(-c2ccc(O)cc2)coc2cc(OCc3cccc(C(F)(F)F)c3)ccc12 [PT-26, 3-(4-hydroxyphenyl)-7-{[3-(trifluoromethyl)phenyl]methoxy}chromen-4-one]	34
O=c1c(-c2ccc(O)cc2)coc2cc(OCc3cc(F)cc(C(F)(F)F)c3)ccc12 [PT-28, 7-{[3-fluoro-5-(trifluoromethyl)phenyl]methoxy}-3-(4-hydroxyphenyl)chromen-4-one]	58
O=c1c(-c2ccc(O)cc2)coc2cc(OCc3noc(-c4cc(F)cc(C(F)(F)F)c4)n3)ccc12 [PT-29, 7-({5-[3-fluoro-5-(trifluoromethyl)phenyl](1,2,4-oxadiazol-3-yl)}methoxy)-3-(4-hydroxyphenyl)chromen-4-one]	10
O=c1c(-c2ccc(O)cc2)coc2cc(OCc3noc(-c4ccc(F)c(C(F)(F)F)c4)n3)ccc12 [PT-30, 7-({5-[4-fluoro-3-(trifluoromethyl)phenyl](1,2,4-oxadiazol-3-yl)}methoxy)-3-(4-hydroxyphenyl)chromen-4-one]	100
O=c1c(-c2ccc(O)cc2)coc2cc(OCc3noc(-c4cc(C(F)(F)F)ccc4C(F)(F)F)n3)ccc12 [PT-31, 7-({5-[2,5-bis(trifluoromethyl)phenyl](1,2,4-oxadiazol-3-yl)}methoxy)-3-(4-hydroxyphenyl)chromen-4-one]	20
C=CCOC(=O)c1cccc(-c2nc(COc3ccc4c(=O)c(-c5ccc(O)cc5)coc4c3)no2)c1 [PT-32, prop-2-enyl 3-(3-{[3-(4-hydroxyphenyl)-4-oxochromen-7-yloxy]methyl}-1,2,4-oxadiazol-5-yl)benzoate]	1150
CC(C)OC(=O)c1cccc(COc2ccc3c(=O)c(-c4ccc(O)cc4)coc3c2)c1 [PT-35, methylethyl 3-{[3-(4-hydroxyphenyl)-4-oxochromen-7-yloxy]methyl}benzoate]	20
O=C(O)c1ccc(COc2ccc3c(=O)c(-c4ccc(O)cc4)coc3c2)cc1 [PT-36, 4-{[3-(4-hydroxyphenyl)-4-oxochromen-7-yloxy]methyl}benzoic acid]	170
NC(=O)c1ccc(COc2ccc3c(=O)c(-c4ccc(O)cc4)coc3c2)cc1 [PT-37, 4-{[3-(4-hydroxyphenyl)-4-oxochromen-7-yloxy]methyl}benzamide]	380
O=c1c(-c2ccc(O)cc2)coc2cc(OCc3noc(-c4ccc(C(F)(F)F)cc4)n3)ccc12 [PT-38, 3-(4-hydroxyphenyl)-7-({5-[4-(trifluoromethyl)phenyl](1,2,4-oxadiazol-3-yl)}methoxy)chromen-4-one]	600
O=c1c(-c2ccc(O)cc2)coc2cc(OCc3noc(-c4cc(C(F)(F)F)cc(C(F)(F)F)c4)n3)ccc12 [PT-39, 7-({5-[3,5-bis(trifluoromethyl)phenyl](1,2,4-oxadiazol-3-yl)}methoxy)-3-(4-hydroxyphenyl)chromen-4-one]	130
N#Cc1cccc(-c2nc(COc3ccc4c(=O)c(-c5ccc(O)cc5)coc4c3)no2)c1 [PT-40, 3-(3-{[3-(4-hydroxyphenyl)-4-oxochromen-7-yloxy]methyl}-1,2,4-oxadiazol-5-yl)benzenecarbonitrile]	22
O=C(O)c1cccc(-c2nc(COc3ccc4c(=O)c(-c5ccc(O)cc5)coc4c3)no2)c1 [PT-41, 3-(3-{[3-(4-hydroxyphenyl)-4-oxochromen-7-yloxy]methyl}-1,2,4-oxadiazol-5-yl)benzoic acid]	10

Same assay, conditions: at 1 μM; read-out: hALDH2 inhibition (IC50 hALDH2 column)

Compound	inhibition at 1 µM [%]
N#Cc1ccc(-c2coc3cc(OCc4noc(-c5cc(F)cc(C(F)(F)F)c5)n4)ccc3c2=O)cc1 [PT-1, 4-[7-({5-[3-fluoro-5-(trifluoromethyl)phenyl](1,2,4-oxadiazol-3-yl)}methoxy)-4-oxochromen-3-yl]benzenecarbonitrile]	17
CCOC(=O)c1cccc(-c2coc3cc(OCc4noc(-c5cc(F)cc(C(F)(F)F)c5)n4)ccc3c2=O)c1 [PT-3, ethyl 3-[7-({5-[3-fluoro-5-(trifluoromethyl)phenyl](1,2,4-oxadiazol-3-yl)}methoxy)-4-oxochromen-3-yl]benzoate]	22
Cc1ccc(S(=O)(=O)Nc2ccc(-c3coc4cc(OCc5sc(-c6ccc(C(F)(F)F)cc6)nc5C)ccc4c3=O)cc2)cc1 [PT-5, 3-(4-{[(4-methylphenyl)sulfonyl]amino}phenyl)-7-({4-methyl-2-[4-(trifluoromethyl)phenyl](1,3-thiazol-5-yl)}methoxy)chromen-4-one]	0.19
COC(=O)c1cccc(COc2ccc3c(=O)c(-c4ccc(OC)nc4)coc3c2)c1 [PT-6, methyl 3-{[3-(6-methoxy(3-pyridyl))-4-oxochromen-7-yloxy]methyl}benzoate]	16
COC(=O)c1cccc(COc2ccc3c(=O)c(-c4ccc(CO)cc4)coc3c2)c1 [PT-7, methyl 3-({3-[4-(hydroxymethyl)phenyl]-4-oxochromen-7-yloxy}methyl)benzoate]	75
CS(=O)(=O)Nc1ccc(-c2coc3cc(OCc4nc(-c5cc(F)cc(C(F)(F)F)c5)no4)ccc3c2=O)cc1 [PT-8, 7-({3-[5-fluoro-3-(trifluoromethyl)phenyl](1,2,4-oxadiazol-5-yl)}methoxy)-3-{4-[(methylsulfonyl)amino]phenyl}chromen-4-one]	57
N#Cc1cc(-c2coc3cc(OCc4noc(-c5cc(F)cc(C(F)(F)F)c5)n4)ccc3c2=O)ccc1F [PT-9, 2-fluoro-5-[7-({5-[5-fluoro-3-(trifluoromethyl)phenyl](1,2,4-oxadiazol-3-yl)}methoxy)-4-oxochromen-3-yl]benzenecarbonitrile]	24
CCOC(=O)COc1ccc(-c2coc3cc(OCC(=O)OCC)ccc3c2=O)cc1 [PT-10, ethyl 2-(3-{4-[(ethoxycarbonyl)methoxy]phenyl}-4-oxochromen-7-yloxy)acetate]	60
